In EP2325159A1, “Novel salts of rasagiline” (LEK Pharmaceuticals d.d., priority 2009, dated 2011):

Legend:
physchem = conditions: water, Solubility of rasagiline salts in water
[1] = Solubility of rasagiline salts in water measured using Crystal16 (Avantium Technologies)

In the case of `C#CCN[C@@H]1CCc2ccccc21` [(+)-camphor-10-sulfonate, Rasagiline (+)-camphor-10-sulfonate], the solubility (physchem) is reported as 113 mg/mL and the “Solubility of rasagiline salts in water” value is reported as 175 mg/mL.
Compound `C#CCN[C@@H]1CCc2ccccc21` [L-mandelate, Rasagiline L-mandelate] has a solubility ([1]; Solubility of rasagiline salts in water, 25 °C, H2O) of 70 mg/mL and a solubility ([1]; Solubility of rasagiline salts in water, 40 °C, H2O) of 100 mg/mL.
For `C#CCN[C@@H]1CCc2ccccc21` [L-tartrate, Rasagiline L-tartrate, reference compound], the solubility [1] was < 30 mg/mL.
